Test system: C. formosanus workers
Assay: Repellency, choice of treated and untreated filter paper in three-chambered containers
Assay type: in vivo, Coptotermes formosanus
Conditions: for concentration of strong repellency and significant reduction in feeding activity: alternative food choice, 15 days
Description: Thirty-five transparent plastic containers (17.7 cm×8.0 cm×4.0 cm), Pioneer Packaging Co., North Dixon, Ky.), each with three chambers (8.0 cm×5.75 cm×4.0 cm), were used. An opening (3.5 cm×0.3 cm) was made at the bottom of each of the two inner walls, connecting the three chambers and allowing termites to move between the chambers. For each container, filter papers (Whatman #2, 5.5 cm diameter) were placed in the two lateral side chambers. For each treatment, five replicates (five containers) were used; for each replicate, one side chamber was marked “treated” and the other side chamber marked “untreated.”
A stock solution of 2′-acetonaphthone was prepared by dissolving 0.952 mg (AI) in 5 ml ethanol (190.4 mg/l). One-half of this solution was used to apply 500 μl to filter paper placed in the “treated” chamber to test the highest concentration of 2′-acetonaphthone, 4.0 μg/cm^2. The remaining volume, 2.5 ml, was diluted by adding an equal volume of ethanol. One-half of this new solution was used to add 500 μl to each of 5 filter papers in a “treated” chamber to achieve a concentration of 2.0 μg/cm^2. This dilution and application step was repeated four more times to make four additional concentrations equivalent to 1.0, 0.50, 0.250 and 0.125 μg/cm^2. Filter papers placed in the “untreated” chambers were left untreated. Five containers served as replicates for each tested concentration. Five containers served as controls, in which filter paper in the “treated” chamber received 500 μl ethanol, and that in the “untreated” chamber was left untreated.
Containers were kept at ambient conditons overnight for ethanol evaporation, and then all filter papers were weighed. In the middle chamber of all containers, 55 g wetted sand (50 g sand mixed with 5 ml DDH2O) was added, then packed and leveled to allow for clear visualization of tunnels along the bottom of the containers. Treated and untreated filter papers were wetted with 250 μl DDH2O. Then 100 workers and 5 soldiers from colony E were released onto the surface of the sand in the middle chamber.
The containers were covered and incubated for 12 days at 26.6° C. and 70% RH, and checked every 2 days for moisture content. The number of termites in the two lateral chambers was recorded daily for 3 days. On day 12, the bottom of each container was scanned (ScanJet 4c, Hewlett-Packard, Palo Alto, Calif.) and the images printed to measure and calculate the areas of tunnels. The experiment was ended on day 12, and the number of living termites in each container counted. The treated and untreated filter papers were gently cleaned using deionized water and a small brush to remove all debris. Filter papers were then oven dried at 60° C. for 3 h, and re-weighed to calculate food consumption.
A second trial was conducted with higher concentrations of 2′-acetonaphthone (5 to 40 μ/cm^2) using the above technique with some modifications. A stock solution (1900 mg/l) was prepared by dissolving 0.038 g (AI) 2′-acetonaphthone in 20 ml ethanol. Dilutions were made by taking 6.0, 4.5, 3.0, 1.5, and 0.75 ml from the original stock, and adjusting the volume of each to 6.0 ml with ethanol to yield the following concentrations: 1900.0, 1425.0, 950.0, 475.0, 237.5 mg/l, respectively. For each concentration, ten containers were used, with the filter paper in the “treated” chamber coated with 500 μl of the tested concentration. Filter papers placed in the “untreated” chamber were left untreated. For controls, ten containers were similarly handled except that the filter paper in the “treated” chamber was coated with 500 μl ethanol. The solvent was allowed to evaporate overnight at ambient conditions. The final concentrations of 2′-acetonaphthone on the filter papers were 5, 10, 20, 30, and 40 μg/cm^2.
The ten containers for each concentration were equally divided into two equal sub-groups. […]

CC(=O)c1ccc2ccccc2c1 [2′-acetonaphthone]
concentration of strong repellency and significant reduction in feeding activity: ≥ 20 μg/cm^2
concentration of strong repellency and significant reduction in feeding activity (listed as 2′-Acetonaphthone): ≥ 20.0 μg/cm^2
concentration of strong repellency and significant reduction in feeding activity (listed as 2′-aceetonaphthone): ≥ 20.0 μg/cm^2
concentration of strong repellency and significant reduction in feeding activity (listed as 2′-acetonapththone): ≥ 20 μg/cm^2
Survival rates after 15 days exposure (concentrations ≧20 μg/cm^2, control 63.0%, difference not significant): 45.0-51.2%
concentration with significant differences in termite distribution between the chambers (day 8): ≥ 5.0 μg/cm^2
concentration at which repellent (untreated food source available): 5 μg/cm^2 filter paper
concentration with significantly more termites in the untreated chamber than in the treated chamber (within the first 3 days): ≥ 10.0 μg/cm^2
